The values below come from patent US7511144B2, “Reverse hydroxamic acid derivatives” (Kaken Pharmaceutical Co., Ltd., priority 2001, dated 2009).

Holding throughout (assay type): biochemical
One assay has as its target T1, Human MMP14 (Homo sapiens, UniProt P50281).
T1 construct: purchased Biogenesis or Calbiochem 5980-1461 or 475935
The experiment in a line: MMP14 inhibition experiment. The following applies: concentration required for 50% inhibition of enzyme activity; read-out: IC50 value MMP-14. Summed up: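 Fluorescence assay: substrate Dnp-Pro-Cha-Gly-Cys(Me)-His-Ala-Lys(Nma)-NH2 (20 μM before equal-volume mixing) incubated at 37° C for 5 hours with 4 ng human MMP14.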

The next assay has as its target T2, Human MMP8 (Homo sapiens, UniProt P22894).
T2 construct: purchased Calbiochem 444229
The experiment in a line: MMP8 inhibition experiment. The following applies: concentration required for 50% inhibition of enzyme activity; read-out: IC50 value MMP-8. As for the experimental part: MMP inhibition experiment may be carried out using a fluorescent synthetic substrate according to, for example, the methods of Bickett et al. (D. Mark Bickett et al., Anal. Biochem., 1993, 212, 58-64) and Nagase et al. (H. Nagase et al., J. Biol. Chem., 1994, 269, 20952-20957). The methods of inhibition experiments carried out for various MMPs are described below.
Human MMP8 (Calbiochem #444229) in amount of 90 μL (30 ng) was activated by mixing with 10 μL of 10 mM APMA, followed by reaction for 1 hour at 37° C. This enzyme solution in amount of 10 μL was diluted to 90 μL with the assay buffer A, which was added to 90 μL of […] fluorescent substrate (MOCAc-Pro-Leu-Gly-Leu-A2pr(Dnp)-Ala-Arg-NH2, Peptide Institute, Inc., #3163-v) prepared in the assay buffer B, followed by reaction for 5 hours at 37° C.

Another assay addresses T3, Human MMP17 (Homo sapiens, UniProt Q9ULZ9).
T3 construct: purchased Calbiochem 475940
T3 sequence (Q9ULZ9 126-300 limits assumed): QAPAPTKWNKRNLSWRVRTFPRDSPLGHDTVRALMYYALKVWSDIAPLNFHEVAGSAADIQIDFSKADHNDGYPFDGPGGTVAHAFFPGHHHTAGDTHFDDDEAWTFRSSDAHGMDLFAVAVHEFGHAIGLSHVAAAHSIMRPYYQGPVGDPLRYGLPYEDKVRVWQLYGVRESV
The experiment in a line: MMP17 inhibition test. Particulars: concentration required for 50% inhibition of enzyme activity; read-out: IC50 value MMP-17.

For a further assay, the target named is T4, Human MMP2 (Homo sapiens, UniProt P08253).
T4 construct: purchased Calbiochem 444213
T4 sequence (P08253 110-660): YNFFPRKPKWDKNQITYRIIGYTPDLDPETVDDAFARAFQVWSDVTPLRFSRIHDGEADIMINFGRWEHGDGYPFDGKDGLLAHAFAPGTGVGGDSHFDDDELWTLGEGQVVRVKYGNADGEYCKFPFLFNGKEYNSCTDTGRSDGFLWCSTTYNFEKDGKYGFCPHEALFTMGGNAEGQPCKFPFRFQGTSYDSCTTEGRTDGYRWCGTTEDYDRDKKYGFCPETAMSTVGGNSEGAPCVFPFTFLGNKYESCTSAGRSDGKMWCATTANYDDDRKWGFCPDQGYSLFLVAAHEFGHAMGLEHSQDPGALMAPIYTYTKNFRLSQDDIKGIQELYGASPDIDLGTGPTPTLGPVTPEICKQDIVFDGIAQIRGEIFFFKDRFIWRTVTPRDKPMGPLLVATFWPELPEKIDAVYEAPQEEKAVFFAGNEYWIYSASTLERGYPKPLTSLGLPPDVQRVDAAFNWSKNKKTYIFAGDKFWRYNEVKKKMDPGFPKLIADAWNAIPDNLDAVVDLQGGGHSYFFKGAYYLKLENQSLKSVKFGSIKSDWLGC
Description: MMP2 inhibition experiment. Particulars: concentration required for 50% inhibition of enzyme activity; read-out: IC50 value MMP-2.

The target in the next assay is T5, Human MMP1 (Homo sapiens, UniProt P03956).
T5 construct: purchased Calbiochem 444208
T5 sequence (P03956 100-469): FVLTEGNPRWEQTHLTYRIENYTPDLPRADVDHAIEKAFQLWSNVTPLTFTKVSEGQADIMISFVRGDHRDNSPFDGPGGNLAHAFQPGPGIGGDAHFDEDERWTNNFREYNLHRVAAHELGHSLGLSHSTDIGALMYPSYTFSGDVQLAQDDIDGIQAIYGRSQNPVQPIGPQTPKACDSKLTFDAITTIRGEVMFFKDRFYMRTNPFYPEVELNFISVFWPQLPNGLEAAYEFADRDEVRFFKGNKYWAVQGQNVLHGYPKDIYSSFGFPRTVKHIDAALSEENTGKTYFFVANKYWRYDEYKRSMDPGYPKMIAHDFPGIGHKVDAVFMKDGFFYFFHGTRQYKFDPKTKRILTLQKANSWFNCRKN
Description: MMP1 inhibition experiment. Particulars: read-out: IC50 value MMP-1.

Another assay has as its target T6, Human MMP3 (Homo sapiens, UniProt P08254).
T6 construct: purchased Calbiochem 444217
Description: MMP3 inhibition experiment. Particulars: concentration required for 50% inhibition of enzyme activity; read-out: IC50 value MMP-3. An outline of the steps: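 Recombinant human MMP3 (5 ng) mixed with fluorogenic peptide NFF-3 (20 μM stock solution) and incubated 5 hours at 37° C; cleavage followed by fluorescence of the quenched substrate.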

A further assay deals with T7, TACE (Homo sapiens, UniProt P78536).
T7 construct: made in house; host or cells: mammalian cells or insect cells
Description: TACE inhibition experiment (in vitro).

Another assay concerns the target T8, Human MMP9 (Homo sapiens, UniProt P14780).
T8 construct: purchased Calbiochem 444231
Description: MMP9 inhibition experiment. Particulars: read-out: IC50 value MMP-9.

The target in the next assay is T9, Human MMP13 (Homo sapiens, UniProt P45452).
T9 construct: purchased Chemicon CC068
Description: MMP13 inhibition experiment. The following applies: concentration required for 50% inhibition of enzyme activity; read-out: IC50 value MMP-13.

T6 sequence (P08254 100-272 limits assumed): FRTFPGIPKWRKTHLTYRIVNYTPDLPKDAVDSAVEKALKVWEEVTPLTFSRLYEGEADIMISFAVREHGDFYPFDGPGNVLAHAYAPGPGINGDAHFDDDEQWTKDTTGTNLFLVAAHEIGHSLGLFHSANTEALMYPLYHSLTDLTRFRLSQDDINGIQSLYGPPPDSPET
T8 sequence (P14780 107-707 limits assumed): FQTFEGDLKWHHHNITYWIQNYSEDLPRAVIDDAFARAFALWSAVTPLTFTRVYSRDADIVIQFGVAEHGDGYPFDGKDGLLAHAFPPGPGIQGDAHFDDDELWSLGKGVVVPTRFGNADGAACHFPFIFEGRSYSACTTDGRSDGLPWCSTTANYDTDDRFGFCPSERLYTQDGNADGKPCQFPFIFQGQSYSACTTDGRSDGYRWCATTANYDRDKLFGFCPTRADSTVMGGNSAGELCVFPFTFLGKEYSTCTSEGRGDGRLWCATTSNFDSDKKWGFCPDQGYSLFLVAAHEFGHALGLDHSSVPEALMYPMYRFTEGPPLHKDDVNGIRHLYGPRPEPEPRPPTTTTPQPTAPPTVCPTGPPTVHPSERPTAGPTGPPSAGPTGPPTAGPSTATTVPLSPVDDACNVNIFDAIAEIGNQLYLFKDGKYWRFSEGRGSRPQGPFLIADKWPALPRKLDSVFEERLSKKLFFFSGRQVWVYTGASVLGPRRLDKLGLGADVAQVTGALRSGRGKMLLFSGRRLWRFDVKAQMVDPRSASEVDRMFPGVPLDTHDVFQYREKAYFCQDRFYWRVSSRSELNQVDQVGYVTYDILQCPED
T2 sequence (P22894 101-467): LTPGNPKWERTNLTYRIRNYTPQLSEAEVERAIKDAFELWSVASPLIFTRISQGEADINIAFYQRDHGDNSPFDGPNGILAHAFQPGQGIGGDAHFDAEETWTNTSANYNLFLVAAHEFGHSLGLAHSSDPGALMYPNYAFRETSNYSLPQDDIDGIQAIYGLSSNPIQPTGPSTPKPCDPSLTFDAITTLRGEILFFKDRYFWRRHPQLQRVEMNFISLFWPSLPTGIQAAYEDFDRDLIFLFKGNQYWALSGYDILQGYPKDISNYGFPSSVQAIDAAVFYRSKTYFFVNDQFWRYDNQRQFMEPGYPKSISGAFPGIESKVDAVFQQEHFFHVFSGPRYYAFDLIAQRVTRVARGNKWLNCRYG
T7 sequence (P78536 215-824): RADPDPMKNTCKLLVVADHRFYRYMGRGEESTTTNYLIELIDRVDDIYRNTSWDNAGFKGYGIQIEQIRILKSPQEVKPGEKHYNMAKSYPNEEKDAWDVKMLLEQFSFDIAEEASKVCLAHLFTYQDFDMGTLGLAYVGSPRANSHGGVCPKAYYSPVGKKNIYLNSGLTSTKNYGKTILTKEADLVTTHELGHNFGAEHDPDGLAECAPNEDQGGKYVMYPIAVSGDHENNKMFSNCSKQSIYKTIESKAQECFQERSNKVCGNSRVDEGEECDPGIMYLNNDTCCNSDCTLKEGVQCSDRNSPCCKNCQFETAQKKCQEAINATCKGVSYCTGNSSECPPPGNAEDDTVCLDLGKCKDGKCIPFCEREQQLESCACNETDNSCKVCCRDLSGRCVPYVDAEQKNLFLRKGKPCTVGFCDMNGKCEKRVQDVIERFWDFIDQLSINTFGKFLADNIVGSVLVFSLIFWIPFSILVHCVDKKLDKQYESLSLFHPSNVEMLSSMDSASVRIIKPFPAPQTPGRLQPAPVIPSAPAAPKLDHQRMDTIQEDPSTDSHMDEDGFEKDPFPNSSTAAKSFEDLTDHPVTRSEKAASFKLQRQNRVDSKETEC
Description for Human MMP13: Human MMP13 (Chemicon #CC068) in amount of 90 μL (200 ng) was activated by mixing with 10 μL of 10 mM APMA, followed by reaction for 1 hour at 37° C. This enzyme solution in amount of 0.6 μL was diluted to 90 μL with the assay buffer A, which was added to 90 μL of 20 μM fluorescent substrate (Dnp-Pro-Cha-Gly-Cys(Me)-His-Ala-Lys(Nma)-NH2) prepared in the assay buffer B, followed by reaction for 4 hours at 37° C.
Description for Human MMP2: This enzyme solution in amount of 10 μL was diluted to 90 μL with the assay buffer A, which was added to 90 μL of 20 μM fluorescent substrate (MOCAc((7-methoxycoumarin-4-yl)acetyl)-Pro-Leu-Gly-Leu-A2pr(Dnp)-Ala-Arg-NH2, Peptide Institute, Inc., #3163-v) prepared in the assay buffer B, followed by reaction for 5 hours at 37° C.
Description for Human MMP9: This enzyme solution in amount of 1 μL was diluted to 90 μL with the assay buffer A, which was added to 90 μL of 20 μM fluorescent substrate (Dnp-Pro-Cha-Gly-Cys(Me)-His-Ala-Lys(Nma)-NH2) prepared in the assay buffer B, followed by reaction for 4 hours at 37° C.

As to `COCc1cc(COc2ccc(S(=O)(=O)CC(C=C3CCOCC3)N(O)C=O)cc2)cc(C)n1` (stereo not drawn) [Example I-116], the half-inhibitory concentration (IC50) – broadly, the concentration that gives 50% inhibition – at Human MMP14 is greater than 100 µM; at Human MMP8, 28 µM; at Human MMP17, 42 µM; on Human MMP2, 26 µM; on Human MMP1, greater than 100 µM; at Human MMP3, 70 µM. For the same compound, the IC50 on TACE was 0.16 µM; on Human MMP9 it was greater than 100 µM; at Human MMP13, 39 µM.
For `Cc1cc(COc2ccc(S(=O)(=O)CC(N(O)C=O)C3(C)CCC(O)CC3)cc2)c2ccccc2n1` (stereo not drawn) [Example I-137], the IC50 was greater than 100 µM on Human MMP14; 23 µM on Human MMP8; 0.9 µM on Human MMP17; greater than 100 µM on Human MMP2; greater than 100 µM at Human MMP1; 3.2 µM at Human MMP3. Further, the results for the half-maximal inhibitory concentration (IC50) against TACE, on Human MMP9 and at Human MMP13 were 0.024 µM, greater than 100 µM and 50 µM, respectively.
Turning to `Cc1cccc(CCC(CS(=O)(=O)c2ccc(OCc3cc(C)nc4ccccc34)cc2)N(O)C=O)n1` (stereo not drawn) [Example I-129], the IC50 at Human MMP14 was 50 µM; at Human MMP8, 33 µM; on Human MMP17, 3.4 µM; at Human MMP2 it was 12 µM; at Human MMP1 it was greater than 100 µM; at Human MMP3 it was 3.1 µM. Besides, the results for the IC50 at TACE, on Human MMP9 and at Human MMP13 were 0.012 µM, greater than 100 µM and 17 µM, respectively.
Take `Cc1cccc(CCC(CS(=O)(=O)c2ccc(OCc3cc(C)nc4ccccc34)cc2)N(O)C=O)c1` (stereo not drawn) [Example I-39]: the IC50 on Human MMP14 was 43 µM; on Human MMP8 it was greater than 100 µM; at Human MMP17, 25 µM; at Human MMP2, 30 µM; at Human MMP1 it was 73 µM; on Human MMP3 it was 24 µM. Also, the IC50 at TACE is 0.21 µM; at Human MMP9, 36 µM; on Human MMP13, 26 µM.
With `Cc1cc(COc2ccc(S(=O)(=O)CC(CN3CCN(S(C)(=O)=O)CC3)N(O)C=O)cc2)c2ccccc2n1` (stereo not drawn) [Example I-52], the IC50 on Human MMP14 was greater than 100 µM; at Human MMP8, 42 µM; at Human MMP17 it was 1.6 µM; at Human MMP2, 22 µM; on Human MMP1 it was greater than 100 µM; on Human MMP3 it was 1 µM. The IC50 at TACE was 0.012 µM; on Human MMP9, greater than 100 µM; at Human MMP13, 40 µM.
`CCC(CC)C(=O)N1CCC(CC(CS(=O)(=O)c2ccc(OCc3cc(C)nc4ccccc34)cc2)N(O)C=O)CC1` (stereo not drawn) [Example I-51]: the IC50 is 40 µM on Human MMP14; 7.6 µM at Human MMP8; 0.4 µM on Human MMP17; 3.2 µM on Human MMP2; 60 µM on Human MMP1; 0.35 µM on Human MMP3. Further, the results for the 50% inhibitory concentration (IC50) at TACE, on Human MMP9 and at Human MMP13 were 0.01 µM, 37 µM and 5.8 µM, respectively.
As to `Cc1ccc(C(C)(CS(=O)(=O)c2ccc(OCc3cc(C)nc4ccccc34)cc2)N(O)C=O)cc1` (stereo not drawn) [Example I-57], the IC50 at Human MMP14 is 33 µM; on Human MMP8 it was greater than 100 µM; on Human MMP17, 4.6 µM; on Human MMP2, greater than 100 µM; on Human MMP1, 42 µM; at Human MMP3, 6 µM. The IC50 worked out at 0.012 µM against TACE, 60 µM on Human MMP9 and 33 µM on Human MMP13.
In the case of `Cc1cc(COc2ccc(S(=O)(=O)CC(C=C3CCN(C(=O)c4ccccc4)CC3)N(O)C=O)cc2)c2ccccc2n1` (stereo not drawn) [Example I-21], the IC50 worked out at 3.8 µM at Human MMP14; 2.65 µM on Human MMP8; 0.045 µM on Human MMP17; 0.63 µM at Human MMP2; 35 µM on Human MMP1; 0.05 µM on Human MMP3. The 50% inhibitory concentration (IC50) against TACE was found to be 0.0022 µM; at Human MMP9, 9 µM; on Human MMP13 it was 0.6 µM.
